Assay results taken from US7759366B2 (Sanofi-Aventis, priority 2006, dated 2010).

Target: hCB1R (Homo sapiens, UniProt P21554)
Sequence (P21554 whole entry): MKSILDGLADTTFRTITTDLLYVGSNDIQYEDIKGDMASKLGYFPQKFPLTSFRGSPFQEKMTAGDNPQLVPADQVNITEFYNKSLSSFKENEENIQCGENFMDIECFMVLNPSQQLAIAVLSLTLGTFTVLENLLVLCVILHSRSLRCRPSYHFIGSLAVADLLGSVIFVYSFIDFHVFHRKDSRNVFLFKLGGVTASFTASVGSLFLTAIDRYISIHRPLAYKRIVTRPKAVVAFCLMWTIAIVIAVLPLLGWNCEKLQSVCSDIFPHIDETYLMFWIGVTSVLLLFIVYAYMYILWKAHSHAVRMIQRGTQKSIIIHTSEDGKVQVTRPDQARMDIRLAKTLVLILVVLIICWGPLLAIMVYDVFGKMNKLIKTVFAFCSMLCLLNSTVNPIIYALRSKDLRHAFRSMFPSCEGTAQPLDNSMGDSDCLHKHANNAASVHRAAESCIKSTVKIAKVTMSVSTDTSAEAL
Experiment: In vitro functional assay (FLIPR, intracellular Ca2+) with recombinant HEK293 cells, CB1
Type: cell-based
Design: expressed in transfected cells; host or cells: HEK293
Conditions: recombinant HEK293 cells expressing CB1 and Galpha16; 20 min preincubation, then reference agonist; Ca2+ change; read-out: hCB1R: FLIPR; IC50
From the text: In Vitro Functional Assays with Recombinant Cells:

Compound	IC50 [nM]
CC1(C)C(=O)N(c2ccc(C#N)c(C(F)(F)F)c2)C(=O)N1Cc1ccccc1Nc1ccc(C#N)c(C(F)(F)F)c1 [Example 3, 4-{3-[2-(4-cyano-3-trifluoromethylphenylamino)benzyl]-4,4-dimethyl-2,5-dioxoimidazolidin-1-yl}-2-trifluoromethylbenzonitrile]	22
CC1(C)C(=O)N(c2ccc(C#N)c(C(F)(F)F)c2)C(=O)N1Cc1ccccc1Nc1ccc(Cl)cc1 [Example 4, 4-{3-[2-(4-chlorophenylamino)benzyl]-4,4-dimethyl-2,5-dioxoimidazolidin-1-yl}-2-trifluoromethylbenzonitrile]	4
CC1(C)C(=O)N(c2ccc(C#N)c(C(F)(F)F)c2)C(=O)N1Cc1ccccc1Nc1ccc(S(C)(=O)=O)cc1Cl [Example 14, 4-{3-[2-(2-chloro-4-methylsulfonylphenylamino)benzyl]-4,4-dimethyl-2,5-dioxoimidazolidin-1-yl}-2-trifluoromethylbenzonitrile]	108
CC1(C)C(=O)N(c2ccc(C#N)c(C(F)(F)F)c2)C(=O)N1Cc1ccccc1Nc1ccc(Cl)c(Cl)c1 [Example 20, 4-{3-[2-(3,4-dichlorophenylamino)benzyl]-4,4-dimethyl-2,5-dioxoimidazolidin-1-yl}-2-trifluoromethylbenzonitrile]	21
CC1(C)C(=O)N(c2ccc(C#N)c(C(F)(F)F)c2)C(=O)N1Cc1ccccc1Nc1ccccc1Cl [Example 21, 4-{3-[2-(2-chlorophenylamino)benzyl]-4,4-dimethyl-2,5-dioxoimidazolidin-1-yl}-2-trifluoromethylbenzonitrile]	10
CC1(C)C(=O)N(c2ccc(C#N)c(C(F)(F)F)c2)C(=O)N1Cc1ccccc1Nc1cccc(Cl)c1 [Example 22, 4-{3-[2-(3-chlorophenylamino)benzyl]-4,4-dimethyl-2,5-dioxoimidazolidin-1-yl}-2-trifluoromethylbenzonitrile]	46
CC1(C)C(=O)N(c2ccc(C#N)c(C(F)(F)F)c2)C(=O)N1Cc1ccccc1Nc1ccc(C#N)cc1 [Example 33, 4-{3-[2-(4-cyanophenylamino)benzyl]-4,4-dimethyl-2,5-dioxoimidazolidin-1-yl}-2-trifluoromethylbenzonitrile]	4
CC1(C)C(=O)N(c2ccc(C#N)c(C(F)(F)F)c2)C(=O)N1Cc1c(Cl)cc(Cl)cc1Nc1ccc(F)cc1 [Example 35, 4-{3-[2,4-Dichloro-6-(4-fluorophenylamino)benzyl]-4,4-dimethyl-2,5-dioxoimidazolidin-1-yl}-2-trifluoromethylbenzonitrile]	15
CC1(C)C(=O)N(c2ccc(C#N)c(C(F)(F)F)c2)C(=O)N1Cc1c(Cl)cc(Cl)cc1Nc1ccc(Cl)cc1 [Example 37, 4-{3-[2,4-dichloro-6-(4-chlorophenylamino)benzyl]-4,4-dimethyl-2,5-dioxoimidazolidin-1-yl}-2-trifluoromethylbenzonitrile]	21
CC1(C)C(=O)N(c2ccc(C#N)c(C(F)(F)F)c2)C(=O)N1Cc1cc(Cl)cc(Cl)c1Nc1ccc(F)cc1 [Example 38, 4-{3-[3,5-Dichloro-2-(4-fluorophenylamino)benzyl]-4,4-dimethyl-2,5-dioxoimidazolidin-1-yl}-2-trifluoromethylbenzonitrile]	70
CC1(C)C(=O)N(c2ccc(C#N)c(C(F)(F)F)c2)C(=O)N1Cc1cc(Cl)cc(Cl)c1Nc1ccc(F)cc1F [Example 39, 4-{3-[3,5-dichloro-6-(2,4-difluorophenylamino)benzyl]-4,4-dimethyl-2,5-dioxoimidazolidin-1-yl}-2-trifluoromethylbenzonitrile]	69
CC1(C)C(=O)N(c2ccc(C#N)c(C(F)(F)F)c2)C(=O)N1Cc1cc(Cl)cc(Cl)c1Nc1ccc(Cl)cc1 [Example 40, 4-{3-[3,5-dichloro-6-(4-chlorophenylamino)benzyl]-4,4-dimethyl-2,5-dioxoimidazolidin-1-yl}-2-trifluoromethylbenzonitrile]	30
CC1(C)C(=O)N(c2ccc(C#N)c(C(F)(F)F)c2)C(=O)N1Cc1cc(Cl)ccc1Nc1ccc(F)cc1 [Example 41, 4-{3-[5-Chloro-2-(4-fluorophenylamino)benzyl]-4,4-dimethyl-2,5-dioxoimidazolidin-1-yl}-2-trifluoromethylbenzonitrile]	28
CC1(C)C(=O)N(c2ccc(C#N)c(C(F)(F)F)c2)C(=O)N1Cc1cccc(Cl)c1Nc1ccc(Cl)cc1 [Example 43, 4-{3-[5-chloro-6-(4-chlorophenylamino)benzyl]-4,4-dimethyl-2,5-dioxoimidazolidin-1-yl}-2-trifluoromethylbenzonitrile]	77
CC1(C)C(=O)N(c2ccc(C#N)c(C(F)(F)F)c2)C(=O)N1Cc1ccccc1Nc1ccccc1F [Example 44, 4-{3-[2-(2-fluorophenylamino)benzyl]-4,4-dimethyl-2,5-dioxoimidazolidin-1-yl}-2-trifluoromethylbenzonitrile]	7
CC1(C)C(=O)N(c2ccnc(C(F)(F)F)c2)C(=O)N1Cc1ccccc1Nc1ccccc1 [Example 65, 5,5-Dimethyl-1-(2-phenylaminobenzyl)-3-(2-trifluoromethylpyridin-4-yl)imidazolidine-2,4-dione]	145
COC(=O)c1ccc(Nc2ccccc2CN2C(=O)N(c3ccc(C#N)c(C(F)(F)F)c3)C(=O)C2(C)C)c(F)c1 [Example 72, methyl 4-{2-[3-(4-cyano-3-trifluoromethylphenyl)-5,5-dimethyl-2,4-dioxoimidazolidin-1-ylmethyl]phenylamino}-3-fluorobenzoate]	24
CC1(C)C(=O)N(c2ccc(C#N)c(C(F)(F)F)c2)C(=O)N1Cc1ccccc1Nc1ccc(C(=O)O)cc1F [Example 80, 4-{2-[3-(4-cyano-3-trifluoromethylphenyl)-5,5-dimethyl-2,4-dioxoimidazolidin-1-ylmethyl]phenylamino}-3-fluorobenzoic acid]	33
CC1(C)C(=O)N(c2ccc(C#N)c(C(F)(F)F)c2)C(=O)N1Cc1ccccc1Nc1ccc(N)c(F)c1 [Example 95, 4-{3-[2-(4-Amino-3-fluorophenylamino)benzyl]-4,4-dimethyl-2,5-dioxoimidazolidin-1-yl}-2-trifluoromethylbenzonitrile]	31
COC(=O)c1ccc(Nc2cc(Cl)cc(Cl)c2CN2C(=O)N(c3ccc(C#N)c(C(F)(F)F)c3)C(=O)C2(C)C)cc1 [Example 104, methyl 4-{3,5-dichloro-2-[3-(4-cyano-3-trifluoromethylphenyl)-5,5-dimethyl-2,4-dioxoimidazolidin-1-ylmethyl]phenylamino}benzoate]	15
CC1(C)C(=O)N(c2ccc(C#N)c(C(F)(F)F)c2)C(=O)N1Cc1c(Cl)cc(Cl)cc1Nc1ccc(C(=O)O)cc1 [Example 105, 4-{3,5-dichloro-2-[3-(4-cyano-3-trifluoromethylphenyl)-5,5-dimethyl-2,4-dioxoimidazolidin-1-ylmethyl]phenylamino}benzoic acid]	49
COC(=O)c1ccc(Nc2cc(C(F)(F)F)ccc2CN2C(=O)N(c3ccc(C#N)c(C(F)(F)F)c3)C(=O)C2(C)C)cc1 [Example 106, methyl 4-{2-[3-(4-cyano-3-trifluoromethylphenyl)-5,5-dimethyl-2,4-dioxoimidazolidin-1-ylmethyl]-5-trifluoromethylphenylamino}benzoate]	12
